PubChem BioAssay (NCI)
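96-well plates; 48 h exposure; 5 concentrations. Endpoints by linear interpolation between flanking doses. Not reached: highest tested concentration assigned. At the GI50, growth is halved. TGI denotes the concentration required for complete inhibition of growth.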

Experiments:
Test in all cases: growth of human tumour cells (NCI), 48 h
MOLT-4 leukemia = test system: MOLT-4 leukemia
OVCAR-5 ovarian = test system: OVCAR-5 ovarian
T-47D breast = test system: T-47D breast
HT29 colon = test system: HT29 colon
OVCAR-8 ovarian = test system: OVCAR-8 ovarian
MALME-3M melanoma = test system: MALME-3M melanoma
SK-MEL-5 melanoma = test system: SK-MEL-5 melanoma
K-562 leukemia = test system: K-562 leukemia
LOX IMVI melanoma = test system: LOX IMVI melanoma
HOP-92 NSCLC = test system: HOP-92 NSCLC
SNB-75 CNS = test system: SNB-75 CNS
MDA-MB-231 breast = test system: MDA-MB-231 breast
NCI-H23 lung = test system: NCI-H23 lung
NCI-H226 lung = test system: NCI-H226 lung
SF-539 CNS = test system: SF-539 CNS
IGROV1 ovarian = test system: IGROV1 ovarian
ACHN renal = test system: ACHN renal
DU-145 prostate = test system: DU-145 prostate
BT-549 breast = test system: BT-549 breast
SR leukemia = test system: SR leukemia
PC-3 prostate = test system: PC-3 prostate
EKVX NSCLC = test system: EKVX NSCLC
OVCAR-3 ovarian = test system: OVCAR-3 ovarian
A549 NSCLC = test system: A549 NSCLC
SF-268 CNS = test system: SF-268 CNS
NCI/ADR-RES ovarian = test system: NCI/ADR-RES ovarian
SF-295 CNS = test system: SF-295 CNS
TK-10 renal = test system: TK-10 renal
HOP-62 NSCLC = test system: HOP-62 NSCLC
MDA-MB-435 = test system: MDA-MB-435
HS 578T breast = test system: HS 578T breast
OVCAR-4 ovarian = test system: OVCAR-4 ovarian
CAKI-1 renal = test system: CAKI-1 renal
NCI-H460 lung = test system: NCI-H460 lung
COLO 205 colon = test system: COLO 205 colon
RXF 393 renal = test system: RXF 393 renal
RPMI-8226 leukemia = test system: RPMI-8226 leukemia
CCRF-CEM leukemia = test system: CCRF-CEM leukemia
HCT-15 colon = test system: HCT-15 colon
HL-60(TB) leukemia = test system: HL-60(TB) leukemia
SN12C renal = test system: SN12C renal
KM12 colon = test system: KM12 colon
SK-MEL-28 melanoma = test system: SK-MEL-28 melanoma
M14 melanoma = test system: M14 melanoma
SNB-19 CNS = test system: SNB-19 CNS
SK-OV-3 ovarian = test system: SK-OV-3 ovarian
UACC-257 melanoma = test system: UACC-257 melanoma
SK-MEL-2 melanoma = test system: SK-MEL-2 melanoma
HCT-116 colon = test system: HCT-116 colon
SW-620 colon = test system: SW-620 colon
A498 renal = test system: A498 renal
HCC-2998 colon = test system: HCC-2998 colon
MCF7 breast = test system: MCF7 breast
U251 CNS = test system: U251 CNS
786-0 renal = test system: 786-0 renal
UACC-62 melanoma = test system: UACC-62 melanoma
UO-31 renal = test system: UO-31 renal

CC(C)(C)c1ccc(C(=O)Nc2sc3c(c2C(N)=O)CC/C(=N\O)C3)cc1
GI50 (MOLT-4 leukemia): 2.09 µM | TGI (MOLT-4 leukemia): 10.6 µM | GI50 (OVCAR-5 ovarian): 3.43 µM | TGI (OVCAR-5 ovarian): 14.3 µM | GI50 (T-47D breast): 0.739 µM | TGI (T-47D breast): 8.06 µM | GI50 (HT29 colon): 2.68 µM | TGI (HT29 colon): 19.9 µM | GI50 (OVCAR-8 ovarian): 3.88 µM | TGI (OVCAR-8 ovarian): 20.2 µM | GI50 (MALME-3M melanoma): 2.36 µM | TGI (MALME-3M melanoma): 6.53 µM | GI50 (SK-MEL-5 melanoma): 2 µM | TGI (SK-MEL-5 melanoma): 4.21 µM | GI50 (K-562 leukemia): 0.597 µM | TGI (K-562 leukemia): 5.82 µM | GI50 (LOX IMVI melanoma): 1.61 µM | TGI (LOX IMVI melanoma): 4.35 µM | GI50 (HOP-92 NSCLC): 2.43 µM | TGI (HOP-92 NSCLC): 6.86 µM | GI50 (SNB-75 CNS): 3.65 µM | TGI (SNB-75 CNS): 14.9 µM | GI50 (MDA-MB-231 breast): 3.04 µM | TGI (MDA-MB-231 breast): 9.11 µM | GI50 (NCI-H23 lung): 2.51 µM | TGI (NCI-H23 lung): 13.4 µM | GI50 (NCI-H226 lung): 2.36 µM | TGI (NCI-H226 lung): 9.9 µM | GI50 (SF-539 CNS): 2.39 µM | TGI (SF-539 CNS): 6.39 µM | GI50 (IGROV1 ovarian): 3.55 µM | TGI (IGROV1 ovarian): 32 µM | GI50 (ACHN renal): 1.55 µM | TGI (ACHN renal): 9.21 µM | GI50 (DU-145 prostate): 4.21 µM | TGI (DU-145 prostate): 16.7 µM | GI50 (BT-549 breast): 1.06 µM | TGI (BT-549 breast): 8.1 µM | GI50 (SR leukemia): 1.36 µM | TGI (SR leukemia): 6.36 µM | GI50 (PC-3 prostate): 1.31 µM | TGI (PC-3 prostate): 18.6 µM | GI50 (EKVX NSCLC): 3.77 µM | TGI (EKVX NSCLC): 19.2 µM | GI50 (OVCAR-3 ovarian): 3.18 µM | TGI (OVCAR-3 ovarian): 13.6 µM | GI50 (A549 NSCLC): 3.44 µM | TGI (A549 NSCLC): 56.6 µM | GI50 (SF-268 CNS): 5.38 µM | TGI (SF-268 CNS): 24.7 µM | GI50 (NCI/ADR-RES ovarian): 2.87 µM | TGI (NCI/ADR-RES ovarian): 18.6 µM | GI50 (SF-295 CNS): 3.96 µM | TGI (SF-295 CNS): 14.8 µM | GI50 (TK-10 renal): 5.81 µM | TGI (TK-10 renal): 53.9 µM | GI50 (HOP-62 NSCLC): 4.91 µM | TGI (HOP-62 NSCLC): 20.8 µM | GI50 (MDA-MB-435): 3.01 µM | TGI (MDA-MB-435): 10.2 µM | GI50 (HS 578T breast): 4.66 µM | TGI (HS 578T breast): 58 µM | GI50 (OVCAR-4 ovarian): 1.12 µM | TGI (OVCAR-4 ovarian): 14.2 µM | GI50 (CAKI-1 renal): 0.756 µM | TGI (CAKI-1 renal): 10.6 µM | GI50 (NCI-H460 lung): 3.06 µM | TGI (NCI-H460 lung): 10.1 µM | GI50 (COLO 205 colon): 3.39 µM | TGI (COLO 205 colon): 15.7 µM | GI50 (RXF 393 renal): 0.544 µM | TGI (RXF 393 renal): 3.11 µM | GI50 (RPMI-8226 leukemia): 1.04 µM | TGI (RPMI-8226 leukemia): 4.92 µM | GI50 (CCRF-CEM leukemia): 0.505 µM | TGI (CCRF-CEM leukemia): 9.71 µM | GI50 (HCT-15 colon): 1.48 µM | TGI (HCT-15 colon): 14.5 µM | GI50 (HL-60(TB) leukemia): 0.675 µM | TGI (HL-60(TB) leukemia): 5.64 µM | GI50 (SN12C renal): 3.2 µM | TGI (SN12C renal): 12.2 µM | GI50 (KM12 colon): 2.85 µM | TGI (KM12 colon): 13.5 µM | GI50 (SK-MEL-28 melanoma): 3.47 µM | TGI (SK-MEL-28 melanoma): 12.4 µM | GI50 (M14 melanoma): 2.83 µM | TGI (M14 melanoma): 14.2 µM | GI50 (SNB-19 CNS): 4.18 µM | TGI (SNB-19 CNS): 18.4 µM | GI50 (SK-OV-3 ovarian): 3.53 µM | TGI (SK-OV-3 ovarian): 19.2 µM | GI50 (UACC-257 melanoma): 3.27 µM | TGI (UACC-257 melanoma): 11.7 µM | GI50 (SK-MEL-2 melanoma): 2.69 µM | TGI (SK-MEL-2 melanoma): 7.01 µM | GI50 (HCT-116 colon): 1.5 µM | TGI (HCT-116 colon): 12.6 µM | GI50 (SW-620 colon): 1.93 µM | TGI (SW-620 colon): 17.4 µM | GI50 (A498 renal): 2.09 µM | TGI (A498 renal): 8.85 µM | GI50 (HCC-2998 colon): 4.79 µM | TGI (HCC-2998 colon): 22.3 µM | GI50 (MCF7 breast): 2.68 µM | TGI (MCF7 breast): 43.1 µM | GI50 (U251 CNS): 3.66 µM | TGI (U251 CNS): 28.2 µM | GI50 (786-0 renal): 3.81 µM | TGI (786-0 renal): 23 µM | GI50 (UACC-62 melanoma): 1.95 µM | TGI (UACC-62 melanoma): 8.99 µM

NC(N)=Nc1ccc(Oc2ccc(Nc3ccc(Cl)c(C(F)(F)F)c3)cc2)cc1
GI50 (MOLT-4 leukemia): 1.83 µM | TGI (MOLT-4 leukemia): 4.62 µM | GI50 (OVCAR-5 ovarian): 1.71 µM | TGI (OVCAR-5 ovarian): 3.15 µM | GI50 (HT29 colon): 1.6 µM | TGI (HT29 colon): 3.09 µM | GI50 (UO-31 renal): 1.84 µM | TGI (UO-31 renal): 4.51 µM | GI50 (MALME-3M melanoma): 1.79 µM | TGI (MALME-3M melanoma): 3.99 µM | GI50 (HOP-92 NSCLC): 1.38 µM | TGI (HOP-92 NSCLC): 2.8 µM | GI50 (SNB-75 CNS): 1.26 µM | TGI (SNB-75 CNS): 2.61 µM | GI50 (NCI-H23 lung): 1.64 µM | TGI (NCI-H23 lung): 3.15 µM | GI50 (SF-539 CNS): 1.69 µM | TGI (SF-539 CNS): 3.19 µM | GI50 (ACHN renal): 1.8 µM | TGI (ACHN renal): 3.24 µM | GI50 (DU-145 prostate): 1.74 µM | TGI (DU-145 prostate): 3.16 µM | GI50 (PC-3 prostate): 1.51 µM | TGI (PC-3 prostate): 3.01 µM | GI50 (EKVX NSCLC): 1.76 µM | TGI (EKVX NSCLC): 3.56 µM | GI50 (SF-268 CNS): 1.62 µM | TGI (SF-268 CNS): 3.39 µM | GI50 (NCI/ADR-RES ovarian): 10.4 µM | TGI (NCI/ADR-RES ovarian): 27.7 µM | GI50 (TK-10 renal): 1.82 µM | TGI (TK-10 renal): 3.42 µM | GI50 (MDA-MB-435): 1.59 µM | TGI (MDA-MB-435): 3.02 µM | GI50 (HS 578T breast): 1.9 µM | TGI (HS 578T breast): 4.64 µM | GI50 (OVCAR-4 ovarian): 1.73 µM | TGI (OVCAR-4 ovarian): 3.27 µM | GI50 (NCI-H460 lung): 1.78 µM | TGI (NCI-H460 lung): 3.32 µM | GI50 (COLO 205 colon): 1.73 µM | TGI (COLO 205 colon): 3.48 µM | GI50 (RXF 393 renal): 1.58 µM | TGI (RXF 393 renal): 3.04 µM | GI50 (RPMI-8226 leukemia): 2.46 µM | TGI (RPMI-8226 leukemia): 6.97 µM | GI50 (CCRF-CEM leukemia): 2.21 µM | TGI (CCRF-CEM leukemia): 6.91 µM | GI50 (HCT-15 colon): 1.94 µM | TGI (HCT-15 colon): 4.23 µM | GI50 (SN12C renal): 1.66 µM | TGI (SN12C renal): 3.19 µM | GI50 (KM12 colon): 1.65 µM | TGI (KM12 colon): 3.11 µM | GI50 (SK-MEL-28 melanoma): 1.64 µM | TGI (SK-MEL-28 melanoma): 3.05 µM | GI50 (M14 melanoma): 1.65 µM | TGI (M14 melanoma): 3.22 µM | GI50 (SK-OV-3 ovarian): 2.18 µM | TGI (SK-OV-3 ovarian): 5.07 µM | GI50 (UACC-257 melanoma): 1.64 µM | TGI (UACC-257 melanoma): 3.26 µM | GI50 (SK-MEL-2 melanoma): 1.76 µM | TGI (SK-MEL-2 melanoma): 3.2 µM | GI50 (SW-620 colon): 1.7 µM | TGI (SW-620 colon): 3.25 µM | GI50 (A498 renal): 1.28 µM | TGI (A498 renal): 2.55 µM | GI50 (786-0 renal): 1.74 µM | TGI (786-0 renal): 3.29 µM | GI50 (UACC-62 melanoma): 1.7 µM | TGI (UACC-62 melanoma): 3.27 µM
